This is an account of results in patent US7094869B2, “Low molecular weight peptidomimetic growth hormone secretagogues” (Genentech, Inc., priority 1994, dated 2006).

One test relates to growth hormone secretion. Briefly: GHRP induced growth hormone secretion, intravenous administration (Rat IV). It counts as in vivo. As to conditions: serum GH 10 min after injection; for RAT IV ED50: iv injection. The method, then: Immature weanling female Sprague Dawley rats were purchased from Charles River Labs (Portage, […].) and group housed with water and food available ad libitum. When the rats were 24-30 days old (weighing 50-90 g) they were anesthetized with pentobarbitone (4 mg in 0.5 ml, approximately 60 mg/kg) given by intraperitoneal injection. The rats were then placed briefly on a heated pad, to distend their tail veins, and given an intravenous tail vein injection of the peptides 20 minutes after receiving the anesthetic. The intravenous injection was of 0.1 ml using a 1 ml syringe. The injections contained graded doses of peptides or the vehicle (vehicle for all peptides given intravenously was a buffer of 20 mM sodium acetate, 45 g/l mannitol, pH 5.0). Ten minutes after the intravenous injection blood was taken by cardiac puncture, using a 3 ml syringe, and the rats were then sacrificed.
The blood was then clotted on ice, centrifuged, serum decanted and frozen for subsequent analysis using the rat GH ELISA described elsewhere in the application. For the rat GH ELISA the serum was diluted 1:50 or 1:250, depending on the expected serum GH concentrations achieved, and assayed in duplicate.

A further test concerns the target rat pituitary cells (Rattus norvegicus, UniProt O08725). The method, then: Pituitaries from ten rats were removed, the posterior pituitary discarded and the anterior pituitary placed in Hanks' Balanced Salt Solution (HBSS: without calcium chloride, w/o magnesium chloride, w/o magnesium sulfate; Gibco) containing 20 mM HEPES (Gibco) and 100 U/ml penicillin streptomycin (PS: JRH Biosciences). Under sterile conditions, pituitaries were rinsed twice then minced into small fragments with a razor blade. […] After the incubation, fragments were triturated to yield small clumps and single cells. The cells were centrifuged 1000× g for 5 min, resuspended, counted and plated at a final cell concentration of 100,000 cells/ml. Incubation media was DME low glucose media w/NaHCO3 (Gibco) containing 20 mM hepes, 100 U/ml PS and 10% FBS (Hyclone A-111-L). Cells were plated at 0.5 ml per well in 48 well plates (Falcon) and incubated at 37° C. in 5% C02 for three days. For challenges to determine release of other pituitary hormones cells were plated at 200,000 cells per ml with 2 ml per well of a Swell plate (Corning). Challenge: A (inip)bbFK-NH2 stock (or other GHRP) concentration of 1 mM was made in DMSO and diluted with warmed media approximately 30 min prior to use. The highest concentration of DMSO in media was 0.1%. Stock solutions (1 mM) of rat GHRH, somatostatin (Sigma) and GHRP antagonist HwkWfK were made fresh in media and diluted appropriately. The media used in all challenges and washing steps was DME low glucose with 20 mM Hepes, 100 U/ml PS, 10% FBS. Media was warmed to 37° C. and gassed by placing it into the incubator prior to challenge. On day three, the media was discarded and fresh media (approximately 1 ml) added for the first of three washes. After the last wash, the plate was placed back in the incubator for a 15 min pre-incubation. Then cells were washed 2× (with warmed and gassed media) and fresh 0.5 ml media were added for the second 15 min. pre-incubation. After the second pre-incubation cells were washed 2× as above and 0.5 ml of control and test solutions were added for a final 15 min incubation. After this incubation, the media were removed for subsequent GH ELISA. GH ELISA: A two-site ELISA was used to determine rat GH concentration in the media. […] After blocking and washing, standard (rat GH reference preparation: Parlow) and challenge media is diluted 1:20 prior to GH assay were added for a 1 hr room temperature incubation. STATISTICS: The mean for each group was determined and analyzed by one-way analysis of variance with a post-hoc Student-Newman-Keuls. Significance is defined as P<0.05. The EC50 was calculated using a 4-parameter curve-fit program (Kaleidagraph). Three to four independent EC50s were used to derive the mean and SEM. RIA of pituitary hormones: LH, FSH, TSH, and Prolactin were determined with commercially available kits from Amersham, and ACTH levels were determined by a RIA kit from ICN. CALCIUM FLUX EXPERIMENT: Pituitary cells were plated on fibronectin (Collaborative Research) coated two-chambered slide wells (Nunc). After four days in monolayer culture cells were rinsed three times with HBSS (Gibco) in 1% BSA and 15 mM HEPES and then incubated for 30 min at 37° C. with 5 μM Indo-1 AM (Molecular Probes, Eugene) in HBSS also containing 1% pluronic F127 (Molecular Probes). The cells were rinsed once and fresh media added for RT incubation. […] C^++ flux was imaged with a Meridian ACAS 570 using stage scanning at 21 second intervals.

Where [1] appears, read: read-out: PIT Cell EC50, Table III, formula IV compounds, GH release, 15 min incubation.
[2] abbreviates: read-out: PIT Cell EC50, Table IV, formula III compounds, GH release, 15 min incubation.
Setting [3] is: read-out: “Pit” Cell EC50, Table II, prior art compounds, GH release, 15 min incubation.

Like-named read-outs stand apart in the source and are kept apart here. Non-standard residues stand in square brackets, D forms with d. Residues, ends and D or L forms follow the SMILES beside them. ξ: configuration not given here. *: point of attachment. dNMe2Nal = CN[C@H](Cc1ccc2ccccc2c1)C(=O)O; 2Nal = N[C@@H](Cc1ccc2ccccc2c1)C(=O)O; d2Nal = N[C@H](Cc1ccc2ccccc2c1)C(=O)O; Acetyl(4-pyridyl) = O=C(Cc1ccncc1)*; ξ2Nal = NC(Cc1ccc2ccccc2c1)C(=O)O; NMeF = CN[C@@H](Cc1ccccc1)C(=O)O; Tic = O=C(O)[C@@H]1Cc2ccccc2CN1; Inp = O=C(O)C1CCNCC1; ξK = NCCCCC(N)C(=O)O; Ahx = NCCCCCC(=O)O; Ava = NCCCCC(=O)O; GABA = NCCCC(=O)O

Chain of rat pituitary cells (O08725 whole entry, the tested form may be a part): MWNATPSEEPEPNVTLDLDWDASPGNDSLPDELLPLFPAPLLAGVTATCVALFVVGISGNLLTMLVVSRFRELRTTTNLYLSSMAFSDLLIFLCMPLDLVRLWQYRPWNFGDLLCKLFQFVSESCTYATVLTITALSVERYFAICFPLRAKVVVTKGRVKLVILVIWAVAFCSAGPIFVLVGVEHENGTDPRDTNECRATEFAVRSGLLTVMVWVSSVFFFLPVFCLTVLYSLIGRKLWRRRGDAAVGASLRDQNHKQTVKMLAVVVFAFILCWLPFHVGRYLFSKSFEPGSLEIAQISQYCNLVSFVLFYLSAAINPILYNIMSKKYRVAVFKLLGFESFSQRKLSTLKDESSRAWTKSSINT

Take `CN(C)C(=O)C(Cc1ccccc1)NC(=O)[C@@H](Cc1ccc2ccccc2c1)NC(=O)[C@@H](Cc1ccc2ccccc2c1)NC(=O)C1CCNCC1` (single isomer, unassigned) [(inip) b b F dam]: the “RAT IV ED50” value in the test on growth hormone secretion (Table III) came to 10 µg.
`NCCCNC(=O)[C@H](Cc1ccc2ccccc2c1)NC(=O)[C@@H](Cc1ccc2ccccc2c1)NC(=O)[C@@H](Cc1ccc2ccccc2c1)NC(=O)CCCN` [(Ab) b b B ram, (4-Aminobutanoyl)-DβNal-DβNal-βNal-[N-(3-aminopropyl)] Amide]: on rat pituitary cells (setting [1]), the EC50 is 2.4 nM. In addition, the “RAT IV ED50” value in the test with growth hormone secretion (Table III) worked out at 10 µg.
The matching figures for `NCCCCC(NC(=O)[C@H](Cc1ccccc1)NC(=O)[C@@H](Cc1ccc2ccccc2c1)NC(=O)C(Cc1ccc2ccccc2c1)NC(=O)CCCN)C(N)=O` (stereo partly drawn) [(Ab) b b F K amide, (4-aminobutanoyl)-DβNal-DβNal-Phe-Lys-amide] (H-[GABA][ξ2Nal][d2Nal]F[ξK]-NH2): 0.4 nM and 1 µg.
For `NCCCC(=O)N[C@H](Cc1ccc2ccccc2c1)C(=O)N[C@H](Cc1ccc2ccccc2c1)C(=O)N[C@@H](Cc1ccccc1)C(N)=O` [(Ab) b b F amide] (H-[GABA][d2Nal][d2Nal]F-NH2), the EC50 at rat pituitary cells (setting [2]) was found to be 3.1 nM. In the test on growth hormone secretion (Table IV), the “RAT IV ED50” value amounted to 10 µg.
For the compound `CN(C(=O)CCCN)[C@H](Cc1ccc2ccccc2c1)C(=O)N[C@H](Cc1ccc2ccccc2c1)C(=O)N[C@@H](Cc1ccccc1)C(=O)N[C@@H](CCCCN)C(N)=O` [(Ab) nmb b F K amide] (H-[GABA][dNMe2Nal][d2Nal]FK-NH2), the 50% effective concentration (EC50) at rat pituitary cells (setting [1]) worked out at 0.5 nM. Moreover, the “RAT IV ED50” value in the test with growth hormone secretion (Table III) stood at 1 µg.
In the case of `CN(C(=O)CCCN)[C@H](Cc1ccc2ccccc2c1)C(=O)N[C@H](Cc1ccc2ccccc2c1)C(=O)N[C@@H](Cc1ccccc1)C(N)=O` [(Ab) nmb b F amide] (H-[GABA][dNMe2Nal][d2Nal]F-NH2), the EC50 at rat pituitary cells (setting [2]) is 0.2 nM. For the same compound, in the test with growth hormone secretion (Table IV), the “RAT IV ED50” value was found to be 20 µg.
As to `C[C@H](NC(=O)[C@@H](Cc1ccc2ccccc2c1)NC(=O)CCCCN)C(=O)N[C@@H](Cc1c[nH]c2ccccc12)C(=O)N[C@H](Cc1ccccc1)C(=O)N[C@@H](CCCCN)C(N)=O` [(Ava) b A W f K amide, reference compound] (H-[Ava][d2Nal]AW[dF]K-NH2), the 50% effective concentration (EC50) on rat pituitary cells (setting [3]) stood at 0.2 nM. Besides, the “Rat IV ED50” value in the test on growth hormone secretion (Table II, iv tail vein injection, anesthetized weanling female rats) came to 1.5 µg.
With `NCCCCC(=O)N[C@H](Cc1ccc2ccccc2c1)C(=O)N[C@H](Cc1ccc2ccccc2c1)C(=O)N[C@@H](Cc1ccc2ccccc2c1)C(=O)N[C@@H](CCCCN)C(N)=O` [(Ava) b b B K amide] (H-[Ava][d2Nal][d2Nal][2Nal]K-NH2), the half-maximal effective concentration (EC50) at rat pituitary cells (setting [1]) came out at 0.7 nM. In addition, in the test with growth hormone secretion (Table III), the “RAT IV ED50” value amounted to 50 µg.
For `NCCCCC(=O)N[C@H](Cc1ccc2ccccc2c1)C(=O)N[C@H](Cc1ccc2ccccc2c1)C(=O)N[C@@H](Cc1ccccc1)C(=O)NCC(N)=O` [(Ava) b b F G amide] (H-[Ava][d2Nal][d2Nal]FG-NH2) the same measures were 7.2 nM and 50 µg.
The matching figures for `NCCCCC(=O)N[C@H](Cc1ccc2ccccc2c1)C(=O)N[C@H](Cc1ccc2ccccc2c1)C(=O)N[C@@H](Cc1ccccc1)C(=O)N[C@@H](CCCCN)C(=O)N[C@@H](Cc1ccc(O)cc1)C(N)=O` [(Ava) b b F K Y amide] (H-[Ava][d2Nal][d2Nal]FKY-NH2): 13.6 nM and 20 µg.
For the compound `NCCCCCC(=O)N[C@H](Cc1ccc2ccccc2c1)C(=O)N[C@H](Cc1ccc2ccccc2c1)C(=O)N[C@@H](Cc1ccccc1)C(=O)N[C@@H](CCCCN)C(N)=O` [(ahx) b b F K amide] (H-[Ahx][d2Nal][d2Nal]FK-NH2), the “RAT IV ED50” value in the test with growth hormone secretion (Table III) amounted to 250 µg.
Regarding `NC(=O)[C@@H]1Cc2ccccc2CN1C(=O)[C@@H](Cc1ccc2ccccc2c1)NC(=O)[C@@H](Cc1ccc2ccccc2c1)NC(=O)C1CCNCC1` [(inip) b b (Tic) amide] (H-[Inp][d2Nal][d2Nal][Tic]-NH2), in the test with growth hormone secretion (Table IV), the “RAT IV ED50” value is 10 µg.
On the same count and under the same terms, the same measure for `NC(=O)CCCNC(=O)[C@@H](Cc1ccc2ccccc2c1)NC(=O)[C@@H](Cc1ccc2ccccc2c1)NC(=O)C1CCNCC1` [(inip) b b ab amide] (H-[Inp][d2Nal][d2Nal][GABA]-NH2; N-terminus assumed): 10 µg.
Regarding `NCCCC[C@H](NC(=O)[C@H](Cc1ccccc1)NC(=O)[C@@H](Cc1c[nH]c2ccccc12)NC(=O)[C@@H](Cc1ccc2ccccc2c1)NC(=O)C1CCNCC1)C(N)=O` [(inip) b w F K amide] (H-[Inp][d2Nal][dW]FK-NH2), the “RAT IV ED50” value with growth hormone secretion (Table III) was 0.070 µg.
Turning to `CN(C(=O)C1CCNCC1)[C@H](Cc1ccc2ccccc2c1)C(=O)N(C)[C@H](Cc1ccc2ccccc2c1)C(=O)N[C@@H](Cc1ccccc1)C(=O)N[C@@H](CCCCN)C(N)=O` [(inip) nmb nmb F K amide] (H-[Inp][dNMe2Nal][dNMe2Nal]FK-NH2), the EC50 on rat pituitary cells (setting [1]) is 1.4 nM.
Same read-out and setting: the same measure for `NCCCC[C@H](NC(=O)[C@H](Cc1ccccc1)NC(=O)[C@@H](Cc1ccc2ccccc2c1)NC(=O)[C@@H](Cc1ccc2ccccc2c1)NC(=O)Cc1ccncc1)C(N)=O` [(pac) b b F K amide] ({Acetyl(4-pyridyl)}-[d2Nal][d2Nal]FK-NH2): 100 nM.
For `CN(C(=O)[C@@H](Cc1ccc2ccccc2c1)NC(=O)C1CCN(C(=O)OC(C)(C)C)CC1)[C@@H](CN)Cc1ccc2ccccc2c1` [Boc (inip) b mbm], the EC50 on rat pituitary cells (read-out: PIT Cell EC50, Table V, formula II compounds, GH release, 15 min incubation) came to 13 nM.
As to `C[C@H](N)C(=O)N[C@@H](Cc1c[nH]cn1)C(=O)N[C@H](Cc1ccc2ccccc2c1)C(=O)N[C@@H](C)C(=O)N[C@@H](Cc1c[nH]c2ccccc12)C(=O)N[C@H](Cc1ccccc1)C(=O)N[C@@H](CCCCN)C(N)=O` [GHRP 1, Ala-His-D βNal-Ala-Trp-D Phe-Lys-NH2, reference compound] (H-AH[d2Nal]AW[dF]K-NH2), the EC50 at rat pituitary cells (setting [3]) is 1.4 nM.
Regarding `CN(C(=O)[C@@H](Cc1c[nH]c2ccccc12)NC(=O)[C@@H](Cc1c[nH]c2ccccc12)NC(=O)[C@@H](N)Cc1c[nH]cn1)[C@@H](Cc1ccccc1)C(=O)N[C@@H](CCCCN)C(N)=O` [H w w nmF K amide] (H-H[dW][dW][NMeF]K-NH2), the concentration for a half-maximal effect (EC50) at rat pituitary cells (setting [1]) was found to be 37.3 nM.
As to `NCCCC[C@H](NC(=O)[C@H](Cc1ccccc1)NC(=O)[C@@H](Cc1c[nH]c2ccccc12)NC(=O)[C@@H](Cc1c[nH]c2ccccc12)NC(=O)[C@@H](N)Cc1ccc(O)cc1)C(N)=O` [Y w w F K amide] (H-Y[dW][dW]FK-NH2), the EC50 at rat pituitary cells was found to be 1000 nM.
Same read-out and setting: the result for `NC(=O)[C@H](Cc1ccccc1)NC(=O)[C@@H](Cc1c[nH]c2ccccc12)NC(=O)[C@@H](Cc1c[nH]c2ccccc12)NC(=O)[C@@H](N)Cc1ccc(O)cc1` [Y w w F amide, reference compound] (H-Y[dW][dW]F-NH2) reads 1000 nM.
Turning to `CN[C@H](Cc1ccc2ccccc2c1)C(=O)N[C@H](Cc1ccc2ccccc2c1)C(=O)N[C@@H](Cc1ccc(O)cc1)C(=O)N[C@@H](CCCCN)C(N)=O` [nmb b Y K amide] (H-[dNMe2Nal][d2Nal]YK-NH2), the “RAT IV ED50” value in the test with growth hormone secretion (Table III) worked out at 500 µg.

By EC50 is commonly meant the concentration at which the effect is half-maximal.
